The target of experiment [1] is T1, LeuT (LeuTWT) (Aquifex aeolicus, UniProt O67854, W8A).
T1 construct: gene snf; full length, C-terminal thrombin site and 8xHis tag (pET16b), E. coli C41(DE3), purified in DDM; crystal of W8A a dimer in the asymmetric unit, residues 13-511 and 13-507 visible; smFRET variant from pQO18-TEV vector, His-tagged
In words: scintillation proximity saturation binding, purified protein in DDM; X-ray structure […] Å. (SPA uses beads or plates that emit light when radiolabelled molecules are held near them.)

For experiment [2], the target named is T2, LeuT (LeuTWT) (Aquifex aeolicus, UniProt O67854).
T2 construct: gene snf; full length, C-terminal thrombin site and 8xHis tag (pET16b), E. coli C41(DE3), purified in DDM; crystal of W8A a dimer in the asymmetric unit, residues 13-511 and 13-507 visible; smFRET variant from pQO18-TEV vector, His-tagged
Put plainly: scintillation proximity saturation binding, purified protein in DDM.

Usually Kd stands for the concentration at which binding is half-saturated. As to `N[C@@H](Cc1ccccc1)C(=O)O` [L-Phe], the Kd on LeuT (LeuTWT) [1] came to 796 ± 139 nM; on LeuT (LeuTWT) [2] it was 898 ± 1130 nM.

The values above are taken from article PMC7035281 (Nature Communications, 2020).
